{"source": "patent US9518254B2", "about": "“Compositions and methods for identifying enzyme and transport protein inhibitors” (San Diego State University Research Foundation, priority 2009, dated 2016)", "key": {"HIV-1 protease (PR) [1]": {"tested_on": "HIV-1 protease (PR)", "format": "cell-based", "conditions": "SupT1 PR/Gal4 clone, 1 μg/mL Dox; for inhibitor concentration resulting in eGFP activation: analyzed 50 hrs later, range tested 1 nM to 20 μM"}, "[2]": {"tested_on": "tet-responsive element (TRE) / rtTA", "assay": "Doxycycline activation titration of clonal SupT1 cells (Tet-On induction of eGFP reporter)", "format": "cell-based", "from_the_text": "To obtain an inducible cell line, we utilized the tetracycline inducible system (Tet-On). For this purpose we constructed two lentiviral vectors; one harboring a 7× Tetracycline Response Element (TRE) upstream the gene of interest and another expressing the reverse tet-transactivator (rtTA) coupled to an IRES-mCherry cassette to corroborate rtTA expression. In this system, the TRE element is bound and activated by rtTA only in the presence of an inducer (Tet or Dox). Gal4, PR/Gal4 and PRm/Gal4 were all transferred into the TRE inducible vector (see Figures).\nIn order to optimize the assay for maximal Gal4, PR/Gal4 or PRm/Gal4 induction, we analyzed the effect of increasing levels of Dox. Cells with 0, 50, 100, 250, 500, 750, 1,000, and 2,000 ng/mL Dox were either treated with 10 uM DMSO or 10 uM Indinavir and analyzed 32 hours later. TRE-Gal4 cells reached saturation with Doxycycline at about 1,000 ng/mL whether Indinavir was present or not. […] Again, as with transiently transfected 293 cells, TRE-PR/Gal4 cells had little to non-detectable eGFP expression at any given Dox concentration in the absence of 10 μM Indinavir.\n(§1) FIG. 22 graphically illustrates data determining the optimal conditions for activating the assay to screen for PR inhibition. FIG. 22A graphically illustrates a Doxycycline titration. Clonal SupT1 cells harboring an inducible Gal4, PR/Gal4 or PRm/Gal4 were pre-incubated in a 96 well plate with either DMSO or 10 μM Indinavir and then either left untreated, or activated with […] of Dox. Cells were analyzed by flow cytometry and gated to determine the number of cells positive for eGFP expression. FIG. 22B graphically illustrates a time course of eGFP Induction in response to Doxycyline activation in the presence of DMSO or a PI. SupT1 clones harboring Gal4, PR/Gal4, or PRm/Gal4 were pre-incubated in a 96 well plate with either DMSO or 10 μM Indinavir and then activated with 1 μg/mL Dox. Cells were analyzed at either 4, 8, 12, 16, 20, 25, 50 or 75 hours by flow cytometry and gated for eGFP positive expression."}, "HIV-1 protease (PR) [3]": {"tested_on": "HIV-1 protease (PR)", "format": "cell-based", "from_the_text": "Finally, cells were infected with virus encoding the reporter, rtTA and inducible wild-type PR/Gal4 (pH-TRE-PR/Gal4) to test the ability for this system in T-cells to indicate the levels of PR activity.\nFinally, individual cells from these sorted populations were sorted into a 96 well plate based on the lack of eGFP expression. Clonal cell lines obtained from this experiment were later activated under the same conditions described above, and screened for the individual clones which responded as desired (minimal background and maximal eGFP activation). […] These clones were then expanded and further tested in the following experiments.\nTo determine the optimal time point for the analysis of eGFP expression in the presence of inhibitor, cells were activated with Dox and analyzed by flow cytometry 4, 8, 12, 16, 20, 25, 50, or 75 hours later. Six-well plates containing 250K cells per well in 3 mL media were treated either with DMSO alone as control, or 1 μg/mL Dox and 10 μM Indinavir.\nA 2 ml reaction containing 4 μl of 5 μg/mL Polybrene (Hexadimethrene Bromide, Sigma), 500K SupT1 cells in RPMI (10% FCS, L-glutamine, Pen-strep) and 250 μl frozen viral stocks was mixed, added to wells in 6-well plates, and spun in a hanging bucket rotors Becton Dickinson centrifuge at 1500 RPM, for 120′ at 32° C. Cells were re-suspended and placed in a 37° C. incubator for the analysis of expression at least 72 hours post-infection.\nFlow Cytometry was performed on a BD FACSAria with 488 nm and 633 nm lasers. Data was collected on FACSDiva 6.1.1 software and then exported to FlowJo. eGFP expression was detected in the FITC channel and mCherry expression was detected on the PE-Texas-Red channel. Cells were first gated for size and granularity (FSC-A vs SSC-A) followed by doublet gating (FSC-A vs FSC-W and SSC-A vs. SSC-W). Sorted populations were gated on PE-TexasRed vs FITC plot. 250K cells were collected for each sample into 0.5 mL fetal calf serum (FCS) and 1 mL RPMI. Cells were then spun down at 1500 RPM and resuspended in fresh media in 6-well plates. Cells were allowed to grow for at least seven days to allow for expansion and loss of previously activated eGFP expression.\nas §1"}, "HIV-1 protease (PR) [4]": {"tested_on": "HIV-1 protease (PR)", "format": "cell-based", "conditions": "HEK293T cells pre-treated with 10 uM inhibitor, co-transfected with reporter and pcDNA-PR/Gal4", "procedure": "It was of critical importance to verify the ability for the PR/Gal4 fusion to activate the reporter eGFP by the addition of PR inhibitors. For that purpose, 293T cells were pre-treated with 10 μM Indinavir and then co-transfected with reporter and pcDNA-PR/Gal4 vectors.\n293T cells were transfected as follows. 15 μl of 2 mg/mL Polyethylenimine linear 25 kD (Polysciences, Inc.) were added to 125 μl of DMEM in a 1.8 ml Eppendorf tube. 3 μg of each DNA was added drop-wise to each tube. Tubes were mixed and incubated for 20 min at RT. This mixture was then added drop-wise to 293T cells in a 10 cm plate at ˜60-75% confluence. Cells were then analyzed by fluorescence microscopy and/or flow cytometry 24 hrs post transfection.\nTop Panel: Fluorescence microscopy of eGFP expression in HEK293T cells 24 hours post transfection with the reporter vector (pFR), or co-transfection with the reporter vector plus either the Gal4, PR/Gal4, or PRm/Gal4 vectors. Bottom panel: HEK293T cells were analyzed by flow cytometry at 24 hours post transfection with the same conditions top panel. Gates were drawn to determine the ability to identify cells with an active PI. […] Quantification of eGFP expression in HEK293T transfected with various assay elements. The numbers of cells under various conditions were quantified for eGFP levels indicative of PR inhibition. Results shown are an average of 3 experiments."}, "SupT1 cells [5]": {"tested_on": "SupT1 cells", "conditions": "human, 50 h", "procedure": "(§2) The range chosen extended from 1 nM to 20 μM.\n(§3) The selected SupT1 clone expressing rtTA and mCherry, the 5×UAS-eGFP reporter and an inducible PR/Gal4 were activated with 1 μg/mL and incubated with various concentrations (1, 10, 50, 100, 500, 1000, 5000, 10000 or 20000 ng/mL) of an FDA approved PI: Either Amprenavir, Atazanavir, Darunavir, Indinavir, Lopinavir, Nelfinavir, Ritonavir, Saquinavir, or Tipranavir. Cells were then analyzed 50 hrs later for eGFP expression as determined by flow cytometry on a BD FACSAria."}, "HIV-1 protease (PR) [6]": {"tested_on": "HIV-1 protease (PR)", "assay": "Expression of GFP-PR fusion in cells transfected with pcDNA-GFP-PR (fluorescence microscopy)", "format": "cell-based", "conditions": "inhibitor added at 0 and 24 h post transfection", "from_the_text": "In one embodiment, to achieve low levels of protease, e.g., PR, expression in mammalian cells, a tetracycline (Tet) inducible system is used. FIG. 3 illustrates by fluorescence microscopy use of an exemplary vector of the invention, a Tet-inducible HIV-based self-inactivating vector, that allows regulated expression of the gene of interest. In this case, we have used the enhanced green fluorescent protein (eGFP) as the ectopic gene. This vector allows different levels of protein expression. Tight repression and expression of PR at low levels may be crucial to avoid the possible side effects of PR. […] FIG. 3 illustrates by fluorescence microscopy HeLa cells infected with a Tet inducible HIV-based self-inactivating vector. The cells were incubated with 1 μg/ml Tet and eGFP expression was observed by fluorescence microscopy 24 and 72 h post addition of Tet. […]\nIn summary, FIG. 4 illustrates fluorescent microscopy analysis of cells transfected with pcDNA control (Invitrogen) and pcDNA-GFP-PR. GFP expression was analyzed 24 h post transfection. […]\nIn summary, FIG. 5 graphically illustrates flow cytometry analysis of cells expressing PR-GFP fusion. Cells transfected with pcDNA (control) or pcDNA-GFP-PR fusions were collected 48 hr post-transfection and analyzed for GFP expression. […]"}, "SupT1 cells [7]": {"tested_on": "SupT1 cells", "assay": "Cell death in reporter SupT1 T-cell clones incubated with PR inhibitors", "conditions": "SupT1 PR/Gal4 clone, 50 hrs", "procedure": "as §2, §3"}}}
{"smiles": "COC(=O)N[C@H](C(=O)N[C@@H](Cc1ccccc1)[C@@H](O)CN(Cc1ccc(-c2ccccn2)cc1)NC(=O)[C@@H](NC(=O)OC)C(C)(C)C)C(C)(C)C", "note": "[Atazanavir]", "values": [{"measurement": "inhibitor concentration resulting in eGFP activation", "setting": "HIV-1 protease (PR) [1]", "result": 1, "unit": "nM"}]}
{"smiles": "CC(C)CN(C[C@@H](O)[C@H](Cc1ccccc1)NC(=O)O[C@H]1CO[C@H]2OCC[C@H]21)S(=O)(=O)c1ccc(N)cc1", "note": "[Darunavir]", "values": [{"measurement": "inhibitor concentration resulting in eGFP activation", "setting": "HIV-1 protease (PR) [1]", "result": 1, "unit": "nM"}]}
{"smiles": "C[C@H]1c2cccc(O)c2C(=O)C2=C(O)[C@]3(O)C(=O)C(C(N)=O)=C(O)[C@@H](N(C)C)[C@@H]3[C@@H](O)[C@@H]21", "note": "[Doxycycline]", "values": [{"measurement": "Dox concentration at saturation of eGFP induction", "setting": "[2]; TRE-Gal4 cells, with or without 10 uM Indinavir, 32 hours", "result": "about 1,000 ng/mL"}, {"measurement": "Dox concentration at maximal eGFP induction", "setting": "[2]; TRE-PR/Gal4 cells pre-incubated with 10 μM Indinavir, 32 hours", "result": "around 500 ng/mL"}, {"measurement": "Dox concentration at saturation of eGFP induction", "setting": "[2]; TRE-PRm/Gal4 cells, uninhibited and Indinavir-treated, 32 hours", "result": "around 250 ng/mL"}, {"measurement": "Dox concentration at which activation is saturated", "setting": "[2]; clonal SupT1 cells pre-incubated with DMSO or 10 μM Indinavir", "result": "around 1 μg/mL"}]}
{"smiles": "CC(C)(C)NC(=O)[C@@H]1CN(Cc2cccnc2)CCN1C[C@@H](O)C[C@@H](Cc1ccccc1)C(=O)N[C@H]1c2ccccc2C[C@H]1O", "note": "[Indinavir]", "values": [{"measurement": "activation of PR/Gal4 clones (GFP positive)", "setting": "HIV-1 protease (PR) [3]; SupT1 PR/Gal4 clones, Dox 1 μg/mL, PI 10 μM", "result": "~90", "unit": "%"}, {"measurement": "time of initial induction of eGFP expression", "setting": "HIV-1 protease (PR) [3]; SupT1 clone, 1 μg/mL Dox and 10 μM inhibitor", "result": 8, "unit": "h"}, {"measurement": "eGFP expression (positive cells) by 50 hours", "setting": "HIV-1 protease (PR) [3]; SupT1 clone, 1 μg/mL Dox and 10 μM inhibitor, 50 hours", "result": "~100", "unit": "%"}, {"measurement": "time at which activation of clones reaches max", "setting": "HIV-1 protease (PR) [3]; clonal SupT1 cells in 96-well plates, pre-incubation with 10 μM PI, Dox activation", "result": "around 48 hrs"}, {"measurement": "eGFP induction in presence of inhibitor", "setting": "HIV-1 protease (PR) [3]; non-clonal SupT1 cells with reporter, rtTA and pH-TRE-PR/Gal4, 1 μg/mL Dox and 10 μM inhibitor", "result": "large induction of eGFP expression"}, {"measurement": "inhibitor concentration inducing nearly full activation of eGFP reporter", "setting": "HIV-1 protease (PR) [1]; 50 hrs", "result": 5, "unit": "µM"}, {"measurement": "level of reporter activation at low concentrations", "setting": "HIV-1 protease (PR) [1]; 50 hrs, compared with the other FDA-approved PIs", "result": "lowest levels of reporter activation at low concentrations"}, {"measurement": "eGFP induction by PR/Gal4 fusion in presence of inhibitor", "setting": "HIV-1 protease (PR) [4]", "result": "drastic induction"}]}
{"smiles": "Cc1cccc(C)c1OCC(=O)N[C@@H](Cc1ccccc1)[C@@H](O)C[C@H](Cc1ccccc1)NC(=O)[C@H](C(C)C)N1CCCNC1=O", "note": "[Lopinavir]", "values": [{"measurement": "concentration resulting in significant cell death, with decline in number of eGFP positive cells", "setting": "SupT1 cells [5]", "result": "around 1 uM"}]}
{"smiles": "Cc1c(O)cccc1C(=O)N[C@@H](CSc1ccccc1)[C@H](O)CN1C[C@H]2CCCC[C@H]2C[C@H]1C(=O)NC(C)(C)C", "note": "[Nelfinavir]", "values": [{"measurement": "concentration resulting in significant cell death, with decline in number of eGFP positive cells", "setting": "SupT1 cells [5]", "result": "around 1 uM"}]}
{"smiles": "CC(C)(C)NC(=O)[C@@H]1C[C@@H]2CCCC[C@@H]2CN1C[C@@H](O)[C@H](Cc1ccccc1)NC(=O)[C@H](CC(N)=O)NC(=O)c1ccc2ccccc2n1", "note": "[Saquinavir]", "values": [{"measurement": "expression of N-terminal GFP-PR fusion in presence of inhibitor", "setting": "HIV-1 protease (PR) [6]", "result": "highly expressed"}, {"measurement": "concentration with significant decline in the number of eGFP positive cells (cell death)", "setting": "SupT1 cells [7]", "result": 20, "unit": "µM"}]}
{"smiles": "CCC[C@@]1(CCc2ccccc2)CC(O)=C([C@H](CC)c2cccc(NS(=O)(=O)c3ccc(C(F)(F)F)cn3)c2)C(=O)O1", "note": "[Tipranavir]", "values": [{"measurement": "inhibitor concentration inducing nearly full activation of eGFP reporter", "setting": "HIV-1 protease (PR) [1]; 50 hrs", "result": 5, "unit": "µM"}]}
